Assay results taken from PubChem BioAssay AID2060602 (Molecular Pharmacology Branch, DTP, NCI, 2025).
pIC50: −log10 of the molar value.

Tested on: 648629-189-R-J1-PDC complex spheroids viability
Assay: Anticancer human tumor 648629-189-R-J1-PDC patient-derived bladder carcinoma cell line growth inhibition [CLK]
Details: for pIC50: curve of first compound; for viability, T/C: stronger effect = lower value; active = viability on the fitted dose curve at most 10% of control; inactive = the rest
How it was run: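 Multi-cell-type spheroids combined patient-derived tumor cells with HUVEC endothelial cells and human mesenchymal stem cells. Paired agents were dosed in half-log steps down from about clinical Cmax, or from 10 microM where Cmax was unknown.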

[1] = second compound 0.0316 µM, first compound 0.0316 µM
[2] = second compound 0.0316 µM, first compound 0.1 µM
[3] = second compound 0.0316 µM, first compound 0.316 µM
[4] = second compound 0.0316 µM, first compound 1 µM
[5] = second compound 0.0316 µM, first compound 3.16 µM
[6] = second compound 0.0316 µM, first compound 10 µM
[7] = second compound 0.1 µM, first compound 0.0316 µM
[8] = second compound 0.1 µM, first compound 0.1 µM
[9] = second compound 0.1 µM, first compound 0.316 µM
[10] = second compound 0.1 µM, first compound 1 µM
[11] = second compound 0.1 µM, first compound 3.16 µM
[12] = second compound 0.1 µM, first compound 10 µM
[13] = second compound 0.316 µM, first compound 0.0316 µM
[14] = second compound 0.316 µM, first compound 0.1 µM
[15] = second compound 0.316 µM, first compound 0.316 µM
[16] = second compound 0.316 µM, first compound 1 µM
[17] = second compound 0.316 µM, first compound 3.16 µM
[18] = second compound 0.316 µM, first compound 10 µM
[19] = second compound 1 µM, first compound 0.0316 µM
[20] = second compound 1 µM, first compound 0.1 µM
[21] = second compound 1 µM, first compound 0.316 µM
[22] = second compound 1 µM, first compound 1 µM
[23] = second compound 1 µM, first compound 3.16 µM
[24] = second compound 1 µM, first compound 10 µM
[25] = second compound 3.16 µM, first compound 0.0316 µM
[26] = second compound 3.16 µM, first compound 0.1 µM
[27] = second compound 3.16 µM, first compound 0.316 µM
[28] = second compound 3.16 µM, first compound 1 µM
[29] = second compound 3.16 µM, first compound 3.16 µM
[30] = second compound 3.16 µM, first compound 10 µM
[31] = second compound 10 µM, first compound 0.0316 µM
[32] = second compound 10 µM, first compound 0.1 µM
[33] = second compound 10 µM, first compound 0.316 µM
[34] = second compound 10 µM, first compound 1 µM
[35] = second compound 10 µM, first compound 3.16 µM
[36] = second compound 10 µM, first compound 10 µM
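Throughout, for viability, T/C: drug exposure lasted seven days before viability readout; 100% = DMSO vehicle control wells.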

CC(C)CC(NC(=O)C(Cc1ccccc1)NC(=O)c1cnccn1)B(O)O (stereo unspecified) + CN1CCN(c2cc(C(=O)Nc3cc4cc(-c5cnn(C)c5)ccc4cn3)ccn2)CC1
8.32: pIC50 (second compound 0.1 µM)
8.33: pIC50 (second compound 0.0316 µM)
active: viability, T/C (second compound 0.0316 µM, first compound 0.00949 µM) 0.91% | viability, T/C (second compound 0.0316 µM, first compound 0.03 µM) 0.37% | viability, T/C (second compound 0.0316 µM, first compound 0.0949 µM) 0.28% | viability, T/C (second compound 0.0316 µM, first compound 0.3 µM) 0.14% | viability, T/C (second compound 0.1 µM, first compound 0.00949 µM) 2.63% | viability, T/C (second compound 0.1 µM, first compound 0.03 µM) 0.49% | viability, T/C (second compound 0.1 µM, first compound 0.0949 µM) 0.17% | viability, T/C (second compound 0.1 µM, first compound 0.3 µM) 0.16% | viability, T/C (second compound 0.316 µM, first compound 0.00949 µM) 0.32% | viability, T/C (second compound 0.316 µM, first compound 0.03 µM) 0.16% | viability, T/C (second compound 0.316 µM, first compound 0.0949 µM) 0.15% | viability, T/C (second compound 0.316 µM, first compound 0.3 µM) 0.14% | viability, T/C (second compound 1 µM, first compound 0.000949 µM) 0.66% | viability, T/C (second compound 1 µM, first compound 0.003 µM) 0.93% | viability, T/C (second compound 1 µM, first compound 0.00949 µM) 0.16% | viability, T/C (second compound 1 µM, first compound 0.03 µM) 0.1% | viability, T/C (second compound 1 µM, first compound 0.0949 µM) 0.17% | viability, T/C (second compound 1 µM, first compound 0.3 µM) 0.8% | viability, T/C (second compound 3.16 µM, first compound 0.000949 µM) 0.08% | viability, T/C (second compound 3.16 µM, first compound 0.003 µM) 2.07% | viability, T/C (second compound 3.16 µM, first compound 0.00949 µM) 0.1% | viability, T/C (second compound 3.16 µM, first compound 0.03 µM) 0.08% | viability, T/C (second compound 3.16 µM, first compound 0.0949 µM) 1.36% | viability, T/C (second compound 3.16 µM, first compound 0.3 µM) 1.67% | viability, T/C (second compound 10 µM, first compound 0.000949 µM) 0.06% | viability, T/C (second compound 10 µM, first compound 0.003 µM) 1.03% | viability, T/C (second compound 10 µM, first compound 0.00949 µM) 0.12% | viability, T/C (second compound 10 µM, first compound 0.03 µM) 0.11% | viability, T/C (second compound 10 µM, first compound 0.0949 µM) 2.27% | viability, T/C (second compound 10 µM, first compound 0.3 µM) 1.33%
inactive: viability, T/C (second compound 0.0316 µM, first compound 0.000949 µM) 116% | viability, T/C (second compound 0.0316 µM, first compound 0.003 µM) 79.8% | viability, T/C (second compound 0.1 µM, first compound 0.000949 µM) 94.9% | viability, T/C (second compound 0.1 µM, first compound 0.003 µM) 82.8% | viability, T/C (second compound 0.316 µM, first compound 0.000949 µM) 41.5% | viability, T/C (second compound 0.316 µM, first compound 0.003 µM) 18.5%
> 9.02: pIC50 (second compound 0.316 µM) | pIC50 (second compound 1 µM) | pIC50 (second compound 3.16 µM) | pIC50 (second compound 10 µM)

CC1COCCN1c1cc(C2(S(C)(=N)=O)CC2)nc(-c2ccnc3[nH]ccc23)n1 (stereo unspecified) + CN1CCN(c2cc(C(=O)Nc3cc4cc(-c5cnn(C)c5)ccc4cn3)ccn2)CC1
inactive: viability, T/C [1] 115% | viability, T/C [2] 116% | viability, T/C [3] 103% | viability, T/C [4] 97.1% | viability, T/C [5] 59.5% | viability, T/C [6] 27.5% | viability, T/C [7] 109% | viability, T/C [8] 95.4% | viability, T/C [9] 96.8% | viability, T/C [10] 83% | viability, T/C [11] 54.3% | viability, T/C [12] 26.5% | viability, T/C [13] 33.3% | viability, T/C [14] 45.9% | viability, T/C [15] 39.8% | viability, T/C [16] 34.8% | viability, T/C [17] 19.1%
active: viability, T/C [18] 9.89% | viability, T/C [19] 0.39% | viability, T/C [20] 0.82% | viability, T/C [21] 0.84% | viability, T/C [22] 0.41% | viability, T/C [23] 0.31% | viability, T/C [24] 0.11% | viability, T/C [25] 1.1% | viability, T/C [26] 0.7% | viability, T/C [27] 0.19% | viability, T/C [28] 0.15% | viability, T/C [29] 0.15% | viability, T/C [30] 1.68% | viability, T/C [31] 0.16% | viability, T/C [32] 0.16% | viability, T/C [33] 0.22% | viability, T/C [34] 0.22% | viability, T/C [35] 0.22% | viability, T/C [36] 0.19%
> 7.50: pIC50 (second compound 0.316 µM) | pIC50 (second compound 1 µM) | pIC50 (second compound 3.16 µM) | pIC50 (second compound 10 µM)
5.40: pIC50 (second compound 0.1 µM)
5.34: pIC50 (second compound 0.0316 µM)

O=C(c1cc(Cc2n[nH]c(=O)c3ccccc23)ccc1F)N1CCN(C(=O)C2CC2)CC1 + CN1CCN(c2cc(C(=O)Nc3cc4cc(-c5cnn(C)c5)ccc4cn3)ccn2)CC1
< 5.00: pIC50 (second compound 0.0316 µM) | pIC50 (second compound 0.1 µM)
inactive: viability, T/C [1] 105% | viability, T/C [2] 106% | viability, T/C [3] 104% | viability, T/C [4] 100% | viability, T/C [5] 86.5% | viability, T/C [6] 72.1% | viability, T/C [7] 115% | viability, T/C [8] 111% | viability, T/C [9] 110% | viability, T/C [10] 98% | viability, T/C [11] 84.4% | viability, T/C [12] 68.2% | viability, T/C [13] 37.2% | viability, T/C [14] 39.2% | viability, T/C [15] 43.6% | viability, T/C [16] 46% | viability, T/C [17] 42% | viability, T/C [18] 32.6%
active: viability, T/C [19] 0.41% | viability, T/C [20] 0.25% | viability, T/C [21] 0.62% | viability, T/C [22] 0.21% | viability, T/C [23] 0.92% | viability, T/C [24] 1.08% | viability, T/C [25] 0.08% | viability, T/C [26] 0.44% | viability, T/C [27] 0.12% | viability, T/C [28] 0.15% | viability, T/C [29] 0.79% | viability, T/C [30] 0.38% | viability, T/C [31] 0.08% | viability, T/C [32] 0.14% | viability, T/C [33] 0.72% | viability, T/C [34] 0.15% | viability, T/C [35] 0.23% | viability, T/C [36] 0.5%
> 7.50: pIC50 (second compound 0.316 µM) | pIC50 (second compound 1 µM) | pIC50 (second compound 3.16 µM) | pIC50 (second compound 10 µM)
